Measurements: the supplement of paper PMC10307832

Key:
Assay in all cases: relative viability (nuclei count vs DMSO), 5 days (fraction); higher = more cells survive
NCI-H1915 = system: NCI-H1915
How it was run: (§1)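 Lung cancer cell lines, seeded in 1536-well plates, were treated the following day by pin tool with a single drug or with five library-drug doses (not always all listed) in √10 steps on top of a fixed anchor-drug dose. Cells were fixed and nuclei stained in one step after 5 days, and nuclei were counted. Relative viability is the nuclei count for treated wells divided by that for vehicle wells, reported as medians of duplicate plates.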

LCLC-97TM1 = system: LCLC-97TM1
How it was run: as §1

CAL-12T = system: CAL-12T
How it was run: as §1

NCI-H441 = system: NCI-H441
How it was run: as §1

SW 1573 = system: SW 1573
How it was run: as §1

NCI-H1793 = system: NCI-H1793
How it was run: as §1

201T = system: 201T
How it was run: as §1

NCI-H838 = system: NCI-H838
How it was run: as §1

NCI-H1355 = system: NCI-H1355
How it was run: as §1

LOU-NH91 = system: LOU-NH91
How it was run: as §1

SK-LU-1 = system: SK-LU-1
How it was run: as §1

HCC-78 = system: HCC-78
How it was run: as §1

NCI-H3122 = system: NCI-H3122
How it was run: as §1

NCI-H650 = system: NCI-H650
How it was run: as §1

NCI-H2126 = system: NCI-H2126
How it was run: as §1

NCI-H1395 = system: NCI-H1395
How it was run: as §1

BEN = system: BEN
How it was run: as §1

NCI-H322M = system: NCI-H322M
How it was run: as §1

NCI-H1651 = system: NCI-H1651
How it was run: as §1

NCI-H2347 = system: NCI-H2347
How it was run: as §1

HOP-62 = system: HOP-62
How it was run: as §1

NCI-H1944 = system: NCI-H1944
How it was run: as §1

`Cc1cn(-c2cc(NC(=O)c3ccc(C)c(Nc4nccc(-c5cccnc5)n4)c3)cc(C(F)(F)F)c2)cn1` [Nilotinib] + O=C(c1cc(Cc2n[nH]c(=O)c3ccccc23)ccc1F)N1CCN(C(=O)C2CC2)CC1 [Olaparib] (partner 8 µM) showed a relative viability (NCI-H1915; first compound 0.003162 µM) of 0.267, a relative viability (NCI-H1915; first compound 0.01 µM) of 0.244 and a relative viability (NCI-H1915; first compound 0.03162 µM) of 0.255. For the same molecule, the relative viability (NCI-H1915; first compound 0.1 µM) was 0.187, the relative viability (LCLC-97TM1; first compound 0.001 µM) was 0.339 and the relative viability (LCLC-97TM1; first compound 0.003162 µM) was 0.467. For the same molecule, the relative viability (LCLC-97TM1; first compound 0.01 µM) was 0.461, the relative viability (LCLC-97TM1; first compound 0.03162 µM) was 0.446 and the relative viability (LCLC-97TM1; first compound 0.1 µM) was 0.343. For the same molecule, the relative viability (CAL-12T; first compound 0.001 µM) was 0.648, the relative viability (CAL-12T; first compound 0.003162 µM) was 0.677 and the relative viability (CAL-12T; first compound 0.01 µM) was 0.738. It also gave a relative viability (CAL-12T; first compound 0.03162 µM) of 0.67, a relative viability (CAL-12T; first compound 0.1 µM) of 0.793 and a relative viability (NCI-H441; first compound 0.001 µM) of 0.419. The relative viability (NCI-H441; first compound 0.003162 µM) was 0.807, the relative viability (NCI-H441; first compound 0.01 µM) was 0.533 and the relative viability (NCI-H441; first compound 0.03162 µM) was 0.431. The relative viability (NCI-H441; first compound 0.1 µM) was 0.534, the relative viability (SW 1573; first compound 0.001 µM) was 0.494 and the relative viability (SW 1573; first compound 0.003162 µM) was 0.614. The relative viability (SW 1573; first compound 0.01 µM) was 0.662, the relative viability (SW 1573; first compound 0.03162 µM) was 0.364 and the relative viability (SW 1573; first compound 0.1 µM) was 0.423. The relative viability (NCI-H1793; first compound 0.001 µM) was 0.863, the relative viability (NCI-H1793; first compound 0.003162 µM) was 0.822 and the relative viability (NCI-H1793; first compound 0.01 µM) was 1.13. For the same molecule, the relative viability (NCI-H1793; first compound 0.03162 µM) was 0.706, the relative viability (NCI-H1793; first compound 0.1 µM) was 0.677 and the relative viability (201T; first compound 0.001 µM) was 0.843. The relative viability (201T; first compound 0.003162 µM) was 0.876, the relative viability (201T; first compound 0.01 µM) was 0.959 and the relative viability (201T; first compound 0.03162 µM) was 0.935. The relative viability (201T; first compound 0.1 µM) was 0.869, the relative viability (NCI-H838; first compound 0.001 µM) was 0.789 and the relative viability (NCI-H838; first compound 0.003162 µM) was 1.01. For the same molecule, the relative viability (NCI-H838; first compound 0.01 µM) was 0.878, the relative viability (NCI-H838; first compound 0.03162 µM) was 0.838 and the relative viability (NCI-H838; first compound 0.1 µM) was 0.759. For the same molecule, the relative viability (NCI-H1355; first compound 0.001 µM) was 0.748, the relative viability (NCI-H1355; first compound 0.003162 µM) was 0.816 and the relative viability (NCI-H1355; first compound 0.01 µM) was 0.737. The relative viability (NCI-H1355; first compound 0.03162 µM) was 0.785, the relative viability (NCI-H1355; first compound 0.1 µM) was 0.763 and the relative viability (LOU-NH91; first compound 0.001 µM) was 0.877. The relative viability (LOU-NH91; first compound 0.003162 µM) was 1.05, the relative viability (LOU-NH91; first compound 0.01 µM) was 1.09 and the relative viability (LOU-NH91; first compound 0.03162 µM) was 0.94. The relative viability (LOU-NH91; first compound 0.1 µM) was 0.997, the relative viability (SK-LU-1; first compound 0.001 µM) was 0.408 and the relative viability (SK-LU-1; first compound 0.003162 µM) was 0.469. For the same molecule, the relative viability (SK-LU-1; first compound 0.01 µM) was 0.541, the relative viability (SK-LU-1; first compound 0.03162 µM) was 0.354 and the relative viability (SK-LU-1; first compound 0.1 µM) was 0.444. It also gave a relative viability (HCC-78; first compound 0.001 µM) of 0.748, a relative viability (HCC-78; first compound 0.003162 µM) of 0.602 and a relative viability (HCC-78; first compound 0.01 µM) of 0.877. The relative viability (HCC-78; first compound 0.03162 µM) was 0.768, the relative viability (HCC-78; first compound 0.1 µM) was 0.752 and the relative viability (NCI-H3122; first compound 0.001 µM) was 0.591. For the same molecule, the relative viability (NCI-H3122; first compound 0.003162 µM) was 0.688, the relative viability (NCI-H3122; first compound 0.01 µM) was 0.848 and the relative viability (NCI-H3122; first compound 0.03162 µM) was 0.515. For the same molecule, the relative viability (NCI-H3122; first compound 0.1 µM) was 0.721, the relative viability (NCI-H650; first compound 0.001 µM) was 0.357 and the relative viability (NCI-H650; first compound 0.003162 µM) was 0.432. The relative viability (NCI-H650; first compound 0.01 µM) was 0.454, the relative viability (NCI-H650; first compound 0.03162 µM) was 0.36 and the relative viability (NCI-H650; first compound 0.1 µM) was 0.344. The relative viability (NCI-H2126; first compound 0.001 µM) was 0.902, the relative viability (NCI-H2126; first compound 0.003162 µM) was 1.03 and the relative viability (NCI-H2126; first compound 0.01 µM) was 1.11. The relative viability (NCI-H2126; first compound 0.03162 µM) was 0.876, the relative viability (NCI-H2126; first compound 0.1 µM) was 0.83 and the relative viability (NCI-H1395; first compound 0.001 µM) was 0.472. For the same molecule, the relative viability (NCI-H1395; first compound 0.01 µM) was 0.473, the relative viability (NCI-H1395; first compound 0.03162 µM) was 0.493 and the relative viability (NCI-H1395; first compound 0.1 µM) was 0.455. The relative viability (BEN; first compound 0.001 µM) was 1.11, the relative viability (BEN; first compound 0.003162 µM) was 1.1 and the relative viability (BEN; first compound 0.01 µM) was 1.25. The relative viability (BEN; first compound 0.03162 µM) was 0.996, the relative viability (BEN; first compound 0.1 µM) was 1 and the relative viability (NCI-H322M; first compound 0.001 µM) was 0.737. It also gave a relative viability (NCI-H322M; first compound 0.003162 µM) of 0.712, a relative viability (NCI-H322M; first compound 0.01 µM) of 0.678 and a relative viability (NCI-H322M; first compound 0.03162 µM) of 0.556. The relative viability (NCI-H322M; first compound 0.1 µM) was 0.818, the relative viability (NCI-H1651; first compound 0.001 µM) was 0.173 and the relative viability (NCI-H1651; first compound 0.003162 µM) was 0.187. For the same molecule, the relative viability (NCI-H1651; first compound 0.01 µM) was 0.168, the relative viability (NCI-H1651; first compound 0.03162 µM) was 0.156 and the relative viability (NCI-H1651; first compound 0.1 µM) was 0.181. The relative viability (NCI-H2347; first compound 0.001 µM) was 0.559, the relative viability (NCI-H2347; first compound 0.003162 µM) was 0.664 and the relative viability (NCI-H2347; first compound 0.01 µM) was 0.633. The relative viability (NCI-H2347; first compound 0.03162 µM) was 0.57, the relative viability (NCI-H2347; first compound 0.1 µM) was 0.493 and the relative viability (HOP-62; first compound 0.003162 µM) was 0.38. The relative viability (HOP-62; first compound 0.01 µM) was 0.393, the relative viability (HOP-62; first compound 0.03162 µM) was 0.403 and the relative viability (HOP-62; first compound 0.1 µM) was 0.352. It also gave a relative viability (NCI-H1944; first compound 0.001 µM) of 0.379, a relative viability (NCI-H1944; first compound 0.003162 µM) of 0.397 and a relative viability (NCI-H1944; first compound 0.01 µM) of 0.462. For the same molecule, the relative viability (NCI-H1944; first compound 0.03162 µM) was 0.435 and the relative viability (NCI-H1944; first compound 0.1 µM) was 0.45.
